Assay results: patent US9468670B2, “Melatonin-based treatment and diagnosis of bile duct disease” (Texas A&M University System, priority 2011, dated 2016)

Experiments:
[1] = test system: large mouse cholangiocyte lines; experiment: cAMP levels (RIA) in large mouse cholangiocyte lines; assay type: cell-based; details: preincubation with antagonist (10 mM), melatonin 10^−11 M
Text: (§1) The expression of MT1 and MT2 receptors in immortalized large cholangiocytes was first evaluated by immunofluorescence (Francis et al., 2008). Images were visualized using an Olympus IX-71 confocal microscope. For all immunoreactions, negative controls (with normal serum from the same species substituted for the primary antibody) were included. It was next evaluated by commercially available radioimmunoassay (RIA) kits ([…] et al., 1998; Kato et al., 1992; […] et al., 1999; […] et al., 2004) for cAMP levels ([…] et al., 1998; Kato et al., 1992; […] Shiu et al., 2010). […] […] et al., 1992; Ramirez-Rodriguez et al., 2009; […], 1999). […] Shiu et al., 2010) before evaluating by immunoblots (Francis et al., 2008) the expression of PCNA and the phosphorylation of PKA and EKR1/2.

MT2 vs. the MT1 subtype = details: Shiu et al., 2010; cited from earlier work
[2] = test system: large cholangiocyte lines; experiment: PCNA expression and PKA, ERK1/2 phosphorylation (immunoblots) in immortalized large cholangiocytes; assay type: cell-based, mouse; details: preincubation with antagonist (10 mM), melatonin 10^−11 M, 48 hours
Text: as §1

AANAT = target: T1, AANAT (Rattus norvegicus, UniProt Q64666); experiment: Melatonin levels in serum and cholangiocyte supernatant (ELISA) of Morpholino-treated rats; assay type: in vivo; details: normal rats
T1 construct: the expression of AANAT in liver sections and cholangiocytes from the selected groups of animals; from tissue; host or cells: Male Fischer 344 rats: liver sections, total liver, isolated cholangiocytes, pineal gland, small intestine, serum
T1 sequence (Q64666 whole entry): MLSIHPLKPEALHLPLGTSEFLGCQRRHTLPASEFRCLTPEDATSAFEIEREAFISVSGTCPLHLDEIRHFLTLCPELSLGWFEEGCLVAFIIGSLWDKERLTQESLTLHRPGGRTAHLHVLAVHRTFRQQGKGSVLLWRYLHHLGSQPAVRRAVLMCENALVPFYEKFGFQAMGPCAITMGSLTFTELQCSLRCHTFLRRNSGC
Protocol: In separate experiments, normal rats treated with Vivo-Morpholino sequences of AANAT (5'-[…] NO:1), to reduce the biliary expression of AANAT) or Morpholino mismatched (5'-[…] NO:2)) (Gene Tools LCC) (1 mg/Kg BW/day) for 1 week via an implanted portal vein catheter. Serum, liver tissue, cholangiocytes, kidney, spleen, small intestine, stomach and heart were collected. Since our goal was to knock-down AANAT expression in the liver without inhibiting AANAT expression in other organs, we used a lower dose (1 mg/Kg/day) of Vivo-Morpholino than that described in the original study (3.0 mg/kg/day (Arora et al., 2002). This approach minimizes the amount of Vivo-Morpholino that circulates outside of the liver after slow infusion into the portal vein. See below for the surgical procedure for the implantation of the portal vein catheter by which AANAT Vivo-Morpholino or Morpholino mismatched was administered. Melatonin levels in serum and medium of primary cultures of isolated cholangiocytes were determined by ELISA kits (Genway, San Diego, Calif.). Supernatants were obtained from cholangiocytes (1×10^7 cells/ml) that were incubated for 6 hours at 37° C. (Glaser et al., 2008).

cholangiocytes = experiment: Biliary proliferation (PCNA, IBDM) and apoptosis (TUNEL) in Morpholino-treated rats; assay type: in vivo, rat; details: normal rats, 1 mg/Kg BW/day for 1 week via portal vein catheter
Protocol: (§2) In separate experiments, normal rats treated with Vivo-Morpholino sequences of AANAT (5′-[…] (SEQ ID NO:1), to reduce the biliary expression of AANAT) or Morpholino mismatched (5′-[…] (SEQ ID NO:2)) (Gene Tools LCC) (1 mg/Kg BW/day) for 1 week via an implanted portal vein catheter. Serum, liver tissue, cholangiocytes, kidney, spleen, small intestine, stomach and heart were collected. Since our goal was to knock-down AANAT expression in the liver without inhibiting AANAT expression in other organs, we used a lower dose (1 mg/Kg/day) of Vivo-Morpholino than that described in the original study (3.0 mg/kg/day (Arora et al., 2002). This approach minimizes the amount of Vivo-Morpholino that circulates outside of the liver after slow infusion into the portal vein. See below for the surgical procedure for the implantation of the portal vein catheter by which AANAT Vivo-Morpholino or Morpholino mismatched was administered.
(§3) Biliary proliferation was determined by measurement of the percentage of PCNA-positive cholangiocytes by immunohistochemistry, and intrahepatic bile duct mass (IBDM) by immunohistochemistry for CK-19 (Mancinelli et al., 2010). Biliary apoptosis was evaluated by semiquantitative terminal deoxynucleotidyltransferase biotin-dUTP nick-end labeling (TUNEL) kit (Chemicon International, Inc., Temecula, Calif.) (Mancinelli et al., 2010). IBDM was determined as the area occupied by CK-19 positive-bile duct/total area×100 (Mancinelli et al., 2010). The morphological changes/damage in liver, spleen, kidney, heart, stomach, and small intestine were evaluated from AANAT Vivo-Morpholino- or mismatch-treated rats by H&E staining. The serum levels of the transaminases, glutamate pyruvate transaminases (SGPT) and glutamic oxaloacetic transaminase (SGOT), alkaline phosphatase (ALP) and total bilirubin were evaluated using a Dimension RxL Max Integrated Chemistry system (Dade Behring Inc., Deerfield Ill.), Chemistry Department, Scott & White.

[3] = rat, in vivo, 1 mg/kg/day
Protocol: as §2, §3

[4] = test system: SR, CFTR, Cl−/HCO3− AE2, VEGF-A/C; experiment: Expression of PCNA, SR, CFTR, Cl−/HCO3− AE2, VEGF-A/C in liver sections, liver tissue and cholangiocytes of Morpholino-treated rats; assay type: in vivo, rat; details: normal rats, 1 week
Protocol: as §2
By real-time PCR (Francis et al., 2008), the expression of PCNA, SR, CFTR, Cl^−/HCO3^− AE2, VEGF-A/C was evaluated in total RNA from: (i) cholangiocytes from normal rats, and BDL rats treated with melatonin; and (ii) liver tissue and cholangiocytes from rats treated with mismatch or AANAT Vivo-Morpholino for 1 week. A ΔΔCT analysis was obtained using normal cholangiocytes or normal total liver as control samples (Francis et al., 2008). The primers for rat PCNA, SR, CFTR, Cl^−/HCO3^− AE2, VEGF-A/C (SABiosciences) were designed according to the NCBI GenBank Accession numbers: NM_022381 (PCNA); NM_031115 (SR); NM_017048 (Cl^−/HCO3^− AE2); XM_001059206 (CFTR); NM_031836 (VEGF-A); and NM_053653 (VEGF-C). The percentage of cholangiocytes positive for SR, CFTR, Cl^−/HCO3^− AE2 and VEGF-A/C was evaluated in liver sections: when 0%-5% of bile ducts were positive a negative score was assigned; a +/−score was assigned when 6%-10% of ducts were positive; a +score was assigned when 11%-30% of bile ducts were positive (Glaser et al., 2009).

CCC(=O)NC1Cc2ccccc2C(c2ccccc2)C1 (stereo not shown) [4-P-PDOT, 4-Phenyl-2-propionamidotetralin]
Prevention of the melatonin-induced decrease in cAMP levels [1]: not | Selectivity for the MT2 vs. the MT1 subtype (MT2 vs. the MT1 subtype): > 300 fold

CC(=O)NCCc1c(Cc2ccccc2)[nH]c2ccccc12 [luzindole]
Prevention of the melatonin-induced decrease in cAMP levels [1]: prevented | Prevention of the melatonin-induced decreases in PCNA expression and PKA, ERK2 phosphorylation [2]: prevented

mismatch Morpholino: Morpholino mismatched 5′-GTTCCCGACCTTTGCAACTCGTCCC (SEQ ID NO:2), control for AANAT Vivo-Morpholino (all phosphorodiamidate morpholino (PMO); further chemistry not fully specified)
Melatonin supernatant (AANAT; cholangiocyte supernatant, 6 hours at 37° C., 1 mg/Kg BW/day for 1 week): 5.8 ± 0.6 pg/mL | Melatonin serum (AANAT; 1 mg/Kg BW/day for 1 week via portal vein catheter): 46.4 ± 10.1 pg/mL | % IBDM (cholangiocytes): 0.30 ± 0.04% | % PCNA-positive cholangiocytes (cholangiocytes): 8.00 ± 0.7% | % apoptotic cholangiocytes (cholangiocytes): <5% | ALP [3]: 230.7 ± 9 Units/L | SGOT [3]: 120.5 ± 10.5 Units/L | SGPT [3]: 67.75 ± 4.6 Units/L | Total bilirubin [3]: <0.1 mg/L | Immunoreactivity of cholangiocytes to Cl−HCO3− AE2 [4]: +/− (a +/−score was assigned when 6%-10% of ducts were positive) | Immunoreactivity of cholangiocytes to SR [4]: +/− (a +/−score was assigned when 6%-10% of ducts were positive) | Immunoreactivity of cholangiocytes to VEGF-A [4]: +/− (a +/−score was assigned when 6%-10% of ducts were positive)
